# Laboratory results taken from patent publication US10098861B1 (SyneuRx International (Taiwan) Corp., priority 2017, dated 2018).
# Settings: 500 mg, >90% RH, ambient temperature, 5 days
compound,measurement,value
O=C([O-])c1ccccc1.[Na+] [sodium benzoate],change in XRPD pattern,significant changes
